Results as given in ChEMBL document CHEMBL1201862, “PubChem BioAssay data set” (2004).
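Test compounds were applied to cells in 96-well plates for 48 hours at 5 doses. The concentration for 50% growth inhibition is given as GI50.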 The source made the active and inactive calls. No stated cut-off is given here; in the data, active = GI50 up to about 1.1 µM and inactive = higher.

Assays:
Assay in all cases: DTP human tumour cell line panel, 48 h
[1] = test system: UACC-62
[2] = test system: HT-29
[3] = test system: UACC-257
[4] = test system: MDA-MB-231
[5] = test system: HCC 2998
[6] = test system: M14
[7] = test system: SK-MEL-5
[8] = test system: NCI-H460
[9] = test system: NCI-H23
[10] = test system: SK-OV-3
[11] = test system: SW-620
[12] = test system: MCF7
[13] = test system: T47D
[14] = test system: OVCAR-5
[15] = test system: DMS-114
[16] = test system: SNB-78
[17] = test system: SF-539
[18] = test system: KM-20L2
[19] = test system: ACHN
[20] = test system: SR

SMILES | GI50 [1] | GI50 [2] | GI50 [3] | GI50 [4] | GI50 [5] | GI50 [6] | GI50 [7] | GI50 [8] | GI50 [9] | GI50 [10] | GI50 [11] | GI50 [12] | GI50 [13] | GI50 [14] | GI50 [15] | GI50 [16] | GI50 [17] | GI50 [18] | GI50 [19] | GI50 [20]
CC1(O)C2(c3ccccc3)CCC[N+]1(C)CC2 (stereo unspecified) | > 100 µM (inactive) | > 100 µM (inactive) | > 100 µM (inactive) | > 100 µM (inactive) | > 100 µM (inactive) | > 100 µM (inactive) | > 100 µM (inactive) | > 100 µM (inactive) | > 100 µM (inactive) | > 100 µM (inactive) | > 100 µM (inactive) | > 100 µM (inactive) | > 100 µM (inactive) | > 100 µM (inactive) |  |  |  |  |  | 
O=S(=O)(O)c1cc(S(=O)(=O)O)c2cc(/N=N/c3ccc(/N=N/c4ccc(/C=C/c5ccc(/N=[N+](/[O-])c6ccc(/C=C/c7ccc(/N=N/c8ccc(/N=N/c9ccc%10cc(S(=O)(=O)O)cc(S(=O)(=O)O)c%10c9)cc8)cc7S(=O)(=O)O)c(S(=O)(=O)O)c6)cc5S(=O)(=O)O)c(S(=O)(=O)O)c4)cc3)ccc2c1 | 7.93 µM (inactive) | > 55.1 µM (inactive) | > 60.3 µM (inactive) |  | > 61.2 µM (inactive) |  | > 66.7 µM (inactive) | > 40.3 µM (inactive) | > 77.8 µM (inactive) | > 22.3 µM (inactive) | > 10 µM (inactive) | > 100 µM (inactive) |  | > 79.3 µM (inactive) | > 57.4 µM (inactive) | 53.5 µM (inactive) | > 59 µM (inactive) | 58.9 µM (inactive) |  | 
COc1ccc2cc1Oc1ccc(cc1)CC1c3c(cc(OC)c4c3Oc3cc5c(cc3O4)CCNC5C2)CCN1C (stereo unspecified) | 1.82 µM (inactive) |  | 1.67 µM (inactive) |  | 1.2 µM (inactive) | 2.58 µM (inactive) | 2.06 µM (inactive) |  | 2.06 µM (inactive) | 4.67 µM (inactive) | 1.77 µM (inactive) | 1.85 µM (inactive) |  | 3.6 µM (inactive) |  |  | 1.7 µM (inactive) |  | 1.88 µM (inactive) | 0.698 µM (active)
COc1cc(C2S/C(=C/c3ccccc3)C(=O)N2c2ccc(NC(C)=O)cc2)cc(OC)c1OC (stereo unspecified) | 20 µM (inactive) | 13.2 µM (inactive) | 37.2 µM (inactive) | 14.2 µM (inactive) | 19.7 µM (inactive) | 19.5 µM (inactive) | 13.1 µM (inactive) |  | 20 µM (inactive) | 35.2 µM (inactive) |  | 23.9 µM (inactive) | 11.6 µM (inactive) | 28 µM (inactive) |  |  |  |  | 22.7 µM (inactive) | 18.9 µM (inactive)
